Test results from publication PMC8007833, “Insights into Acinetobacter baumannii fatty acid synthesis 3-oxoacyl-ACP reductases” (Scientific Reports, 2021).

Legend:
FabG (ABO11256.2) [1] = molecular target: T1, FabG (ABO11256.2) (Acinetobacter baumannii, UniProt V5VHN7); test: X-ray crystal structure of co-crystal, […] Å; assay type: binding; conditions: co-crystallised at 1:10 protein to coenzyme, 0.1 M Tris pH 8.0, 2 M ammonium sulphate; coenzyme site
T1 construct: codon-optimised gene in pMCSG21, E. coli BL21(DE3) pLysS; N-terminal 6-His tag cut by TEV; 244 residues, 26 kDa protomer, homotetramer about 100 kDa
T1 sequence (V5VHN7 1-244): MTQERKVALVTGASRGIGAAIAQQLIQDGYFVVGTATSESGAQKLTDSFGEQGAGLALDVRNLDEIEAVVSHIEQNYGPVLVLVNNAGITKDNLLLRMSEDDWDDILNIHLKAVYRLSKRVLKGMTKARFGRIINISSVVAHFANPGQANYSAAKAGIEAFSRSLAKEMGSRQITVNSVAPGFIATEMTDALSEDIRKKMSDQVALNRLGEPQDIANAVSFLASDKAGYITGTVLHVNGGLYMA

HMwFabG (ABO12488.2) = molecular target: T2, HMwFabG (ABO12488.2) (Acinetobacter baumannii, UniProt A0A219C8F5); test: coenzyme oxidation, absorbance at […] nm; assay type: biochemical; conditions: 200 µM NADH, 500 µM acetoacetyl-CoA, 20 mM HEPES pH 7.4, 125 mM NaCl, 37 °C, 30 min
T2 construct: gene fabG_9; codon-optimised gene in pMCSG21, E. coli BL21(DE3) pLysS; N-terminal 6-His tag cut by TEV; 463 residues, 48 kDa protomer, homodimer
T2 sequence (A0A219C8F5 1-463): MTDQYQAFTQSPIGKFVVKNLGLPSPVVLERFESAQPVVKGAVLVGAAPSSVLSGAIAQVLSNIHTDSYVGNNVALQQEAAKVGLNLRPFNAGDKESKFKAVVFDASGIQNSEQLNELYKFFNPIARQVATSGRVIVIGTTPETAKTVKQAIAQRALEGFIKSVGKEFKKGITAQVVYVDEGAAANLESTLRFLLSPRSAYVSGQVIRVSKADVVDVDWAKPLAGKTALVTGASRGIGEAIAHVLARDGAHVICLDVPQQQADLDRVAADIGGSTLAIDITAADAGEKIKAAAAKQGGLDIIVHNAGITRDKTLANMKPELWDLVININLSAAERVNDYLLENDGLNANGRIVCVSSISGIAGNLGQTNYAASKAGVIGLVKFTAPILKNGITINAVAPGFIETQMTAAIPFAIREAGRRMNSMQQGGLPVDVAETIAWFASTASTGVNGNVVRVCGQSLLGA

FabG (ABO11256.2) [2] = molecular target: T1, FabG (ABO11256.2); test: coenzyme oxidation, absorbance at […] nm; assay type: biochemical; conditions: 500 µM acetoacetyl-CoA, 200 µM NADPH, 20 mM HEPES pH 7.4, 125 mM NaCl, 37 °C, 30 min

SMILES | X-ray crystal structure of co-crystal, 1.85 Å (FabG (ABO11256.2) [1]) | coenzyme oxidation, absorbance at 340 nm (HMwFabG (ABO12488.2)) | coenzyme oxidation, absorbance at 340 nm (FabG (ABO11256.2) [2])
NC(=O)C1=CN([C@@H]2O[C@H](COP(=O)(O)OP(=O)(O)OC[C@H]3O[C@@H](n4cnc5c(N)ncnc54)[C@H](OP(=O)(O)O)[C@@H]3O)[C@@H](O)[C@H]2O)C=CC1 [NADPH] | strong positive density allowing NADPH to be modelled within each protomer |  | 
NC(=O)C1=CN([C@@H]2O[C@H](COP(=O)(O)OP(=O)(O)OC[C@H]3O[C@@H](n4cnc5c(N)ncnc54)[C@H](O)[C@@H]3O)[C@@H](O)[C@H]2O)C=CC1 [NADH] |  | Our enzyme assays showed clear preference for NADH as the catalytic coenzyme | 
CC(=O)CC(=O)SCCNC(=O)CCNC(=O)[C@H](O)C(C)(C)COP(=O)(O)OP(=O)(O)OC[C@H]1O[C@@H](n2cnc3c(N)ncnc32)[C@H](O)[C@@H]1OP(=O)(O)O [acetoacetyl-CoA] |  | Enzyme activity of HMwFabG with acetoacetyl-CoA | enzyme assays were conducted in the presence of a substrate mimic, acetoacetyl-CoA
